Earlier results, collected in patent publication US8067542B1 (priority 2003, dated 2011).

Test system: Verticillium dahliae
Conditions: AlfAFP expressed in potato (Gao et al, 2000); cited from earlier work

Substance: Alf - wt: native alfalfa antifungal protein (plant defensin from Medicago sativa seeds), SEQ ID NO:2 (RTCENLADKYRGPCFSGCDTHCTTKENAVSGRCRDDFRCWCTKRC; listed as Medicago sativa)
- resistance to early dying disease in potato: confer resistance to early dying disease
